# Laboratory results as given in US9347888B2, “Detection of bacteria exhibiting a resistance to carbapenems” (BIOMERIEUX, priority 2011, dated 2016).
# Legend:
# Total carbapenemases = assay: Impact of cloxacillin and/or PAbetaN with faropenem, agar dilution; type: cell-based, Gram-negative bacteria; conditions: cloxacillin alone (no PAbetaN), at the 3 concentrations of faropenem tested
# Description: (§1) Seventy-seven strains of Gram-negative bacteria, of which 71 are enterobacteria and 6 non-enterobacteria (non-fermenting bacteria), whose resistance characteristics are set out in Table VIII, were tested on media containing different concentrations of faropenem and cloxacillin, with or without PAbetaN, in order to establish the sensitivity and the specificity of each formulation. The tested media are described in Table IX.
# (§2) The chromogenic media are divided into 120×120 square dishes.
# (§3) The seeding is performed from 24-h pre-cultures at 37° C. on trypcase soy agar. For each strain, a 0.5 McF suspension in physiological water is produced. Each suspension is spot-seeded (1 to 2 μL) on each medium with the aid of a multi-point inoculator according to the Agar Dilution (AD) method. Readings are performed after 24 hours of incubation at 37° C.
# (§4) An absence of bacterial growth or a number of colonies which is less than or equal to 3 are considered as corresponding to growth inhibition. The presence of 4 colonies or more is considered to be positive growth.
# [1] = tested on: IR (impermeability resistance) strains; assay: as above; type: cell-based, Gram-negative bacteria
# Description: as §1, §2, §3, §4
# [2] = Test of stability of the different carbapenems in agar medium; type: physicochemical; conditions: agar media kept at 2 to 8°C up to 9 weeks (63 days); strains seeded D0, D14, D42, D63
# Description: Agar media modelled on those indicated supra were prepared and kept at a temperature of between 2 and 8° C. for up to 9 weeks (63 days).
# ESBL and AmpC strains, and carbapenemases from class B, IR or KPC, were seeded on these different media on D0, D14, D42 and D63.
# KPC strains = assay: Faropenem on pure strains, agar dilution: MIC and growth of KPC strains; type: cell-based, Gram-negative bacteria
# Description: (§5) Seventy-nine strains of Gram-negative bacteria, of which 69 are enterobacteria and 10 non-enterobacteria (non-fermenting bacteria), whose resistance characteristics are set out in Table I, were tested on media containing different concentrations of faropenem in order to establish the sensitivity/specificity of each formulation. The dishes were read after 24 hours of incubation at 37° C.
# (§6) The medium used is a conventional agar medium comprising at least one chromogenic substrate, and supplemented with faropenem at the following concentrations:
# (§7) The media are divided into 120×120 square dishes.
# (§8) The seeding is performed from 24-h pre-cultures at 37° C. on trypcase soy agar.
# (§9) For each strain, a 0.5 McF suspension in physiological water is produced and then diluted 1/100.
# (§10) Each suspension is spot-seeded (1 to 2 μL) on each medium with the aid of a multi-point inoculator according to the Agar Dilution (AD) method.
# (§11) Readings are performed after 24 hours of incubation at 37° C.
# (§12) For interpretation, the following cases are considered as corresponding to growth inhibition: • absence of bacterial growth • number of colonies≦3
# (§13) The presence of 4 colonies or more is considered to be positive growth.
# [3] = tested on: carbapenemase-producing strains; assay: Faropenem on pure strains, agar dilution: detection sensitivity; type: cell-based, Gram-negative bacteria; conditions: medium containing 16 mg/L faropenem; for Detection sensitivity (strains detected/strains): 24 h 37°C
# Description: as §5, §6, §7, §8, §9, §10, §11, §12, §13
# [4] = tested on: strains with other types of resistance (ESBL or cephalosporinase, impermeability resistance); assay: Faropenem on pure strains, agar dilution: detection specificity; type: cell-based, Gram-negative bacteria; conditions: medium containing 16 mg/L faropenem; for Detection specificity (strains inhibited/strains): 24 h 37°C
# Description: as §5, §6, §7, §8, §9, §10, §11, §12, §13
smiles,measurement,setting,value
Cc1onc(-c2ccccc2Cl)c1C(=O)N[C@@H]1C(=O)N2[C@@H]1SC(C)(C)[C@@H]2C(=O)O [cloxacillin],impact on the growth of the carbapenemase-producing strains,Total carbapenemases,little or no impact
same,additional IR strains inhibited,[1]; addition of 50 mg/L cloxacillin at 16 mg/L of faropenem,6
same,additional IR strains inhibited,[1]; addition of 200 mg/L cloxacillin at 16 mg/L of faropenem,9
C[C@@H](O)[C@H]1C(=O)N2C(C(=O)O)=C(S[C@@H]3CN[C@H](CNS(N)(=O)=O)C3)[C@H](C)[C@H]12 [doripenem],stability in agar medium,[2],"close to that of ertapenem, and greater than that of imipenem and of meropenem"
C[C@@H](O)[C@H]1C(=O)N2C(C(=O)O)=C([C@H]3CCCO3)S[C@H]12 [faropenem],KPC strains developing on the medium,KPC strains; faropenem at 16 mg/L,All of the KPC strains develop
same,MIC of the totality of KPC strains,"KPC strains; whatever the inoculum tested, unit not printed (media in mg/L)",> 32
same,No. IR developing (/19),"[1]; PAbetaN 0, cloxacillin 0, faropenem 8 mg/L",16
same,No. IR developing (/19),"[1]; PAbetaN 0, cloxacillin 0, faropenem 16 mg/L",15
same,No. IR developing (/19),"[1]; PAbetaN 0, cloxacillin 0, faropenem 32 mg/L",10
same,No. IR developing (/19),"[1]; PAbetaN 0, cloxacillin 50, faropenem 8 mg/L",14
same,No. IR developing (/19),"[1]; PAbetaN 0, cloxacillin 50, faropenem 16 mg/L",9
same,No. IR developing (/19),"[1]; PAbetaN 0, cloxacillin 50, faropenem 32 mg/L",4
same,No. IR developing (/19),"[1]; PAbetaN 0, cloxacillin 100, faropenem 8 mg/L",11
same,No. IR developing (/19),"[1]; PAbetaN 0, cloxacillin 100, faropenem 16 mg/L",6
same,No. IR developing (/19),"[1]; PAbetaN 0, cloxacillin 100, faropenem 32 mg/L",2
same,No. IR developing (/19),"[1]; PAbetaN 0, cloxacillin 200, faropenem 8 mg/L",11
same,No. IR developing (/19),"[1]; PAbetaN 0, cloxacillin 200, faropenem 16 mg/L",6
same,No. IR developing (/19),"[1]; PAbetaN 0, cloxacillin 200, faropenem 32 mg/L",1
same,No. IR developing (/19),"[1]; PAbetaN 25, cloxacillin 50, faropenem 8 mg/L",11
same,No. IR developing (/19),"[1]; PAbetaN 25, cloxacillin 50, faropenem 16 mg/L",10
same,No. IR developing (/19),"[1]; PAbetaN 25, cloxacillin 50, faropenem 32 mg/L",5
same,No. IR developing (/19),"[1]; PAbetaN 25, cloxacillin 100, faropenem 8 mg/L",10
same,No. IR developing (/19),"[1]; PAbetaN 25, cloxacillin 100, faropenem 16 mg/L",5
same,No. IR developing (/19),"[1]; PAbetaN 25, cloxacillin 100, faropenem 32 mg/L",1
same,No. IR developing (/19),"[1]; PAbetaN 25, cloxacillin 200, faropenem 8 mg/L",7
same,No. IR developing (/19),"[1]; PAbetaN 25, cloxacillin 200, faropenem 16 mg/L",1
same,No. IR developing (/19),"[1]; PAbetaN 25, cloxacillin 200, faropenem 32 mg/L",1
same,impact on IR strains,"[1]; faropenem alone, up to a concentration of 16 mg/L",little impact
same,Detection sensitivity,[3]; inoculum 0.5 McF,91.4%
same,Detection sensitivity,[3]; inoculum 0.5 McF diluted 1/100,91.4%
same,Detection sensitivity (strains detected/strains),[3]; inoculum 0.5 McF diluted 1/100,53/58
same,Detection sensitivity (strains detected/strains),[3]; inoculum 0.5 McF,53/58
same,stability in agar medium,[2],"close to that of ertapenem, and greater than that of imipenem and of meropenem"
same,Detection specificity,[4]; inoculum 0.5 McF,66.7%
same,Detection specificity,[4]; inoculum 0.5 McF diluted 1/100,71.4%
same,Detection specificity (strains inhibited/strains),[4]; inoculum 0.5 McF diluted 1/100,15/21
same,Detection specificity (strains inhibited/strains),[4]; inoculum 0.5 McF,14/21
